Assay: Inhibition of bovine liver beta-glucosidase

Row | IC50 | SMILES
1 | 120 µM | CCCC[C@H]1N[C@H](CO)[C@@H](O)[C@H](O)[C@H]1O [(2R,3S,4R,5R,6R)-2-butyl-6-(hydroxymethyl)piperidine-3,4,5-triol]
2 | 210 µM | OC[C@H]1NC[C@H](O)[C@@H](O)[C@@H]1O [(2R,3R,4R,5S)-2-(hydroxymethyl)piperidine-3,4,5-triol]
